This data set is described as follows: Solubility of peptides and HBS helices. The class given is physicochemical. Here is the method: Design of Ras/Sos inhibitors was performed starting with the wild-type Sos929-944 α-H sequence. Additional modifications were introduced in order to improve the solubility of the HBS peptides. Charged residues were introduced at positions not involved in Ras binding. Computational alanine scanning was performed on two separate crystal structures (PDB codes: 1NVW and 1BKD) of the Ras/Sos complex to determine other important binding residues in the α-H helix that may be incorporated in the peptide mimetics. Additionally, non-essential β-branched residues (including threonine) in the wild-type α-H sequence were replaced with suitable residues to afford peptides with higher helical content (Table 1), as it was hypothesized that such modifications would improve α-helicity.

For the substance “Ac-FEGLLRLWLRKAEEAN-NH2 (N-terminus assumed) [Peptide 12]”, the Solubility entry is listed as “soluble”.
